Counter-ions that a name gives are not always drawn. Like-named read-outs stand apart in the source and are kept apart here.
Target: T1, human mAChR M4 (Homo sapiens, UniProt P08173)
T1 sequence (P08173 1-479): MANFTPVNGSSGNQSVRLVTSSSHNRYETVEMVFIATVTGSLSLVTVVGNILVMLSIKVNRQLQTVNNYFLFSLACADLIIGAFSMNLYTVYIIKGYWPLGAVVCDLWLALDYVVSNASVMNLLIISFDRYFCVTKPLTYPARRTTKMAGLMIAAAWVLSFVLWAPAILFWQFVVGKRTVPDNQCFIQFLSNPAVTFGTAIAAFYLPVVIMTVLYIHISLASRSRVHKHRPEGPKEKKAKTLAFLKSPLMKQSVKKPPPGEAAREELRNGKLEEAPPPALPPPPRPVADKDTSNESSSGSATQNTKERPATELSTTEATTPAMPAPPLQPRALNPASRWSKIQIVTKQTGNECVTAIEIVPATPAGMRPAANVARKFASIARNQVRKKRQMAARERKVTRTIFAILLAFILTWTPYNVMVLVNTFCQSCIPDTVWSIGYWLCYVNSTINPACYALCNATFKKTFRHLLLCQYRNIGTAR
Assay: mAChR M4 cell-based functional assay (calcium flux), human M4
Settings: for EC50: calcium flux

[1] = Human M4 EC50 (nM), Table 10, PAM activity with EC20 acetylcholine
[2] = Table 10, % ACh maximum at 30 μM
[3] = Table 11, % ACh maximum at 30 μM
[4] = Human M4, % ACh maximum at 30 μM
[5] = Human M4 EC50, CHO-K1 hM4-Gqi5 cells, increase in EC20 acetylcholine response
[6] = Human M4 EC50 (nM), Table 11, PAM activity with EC20 acetylcholine

EC50 [1] [nM]	Emax [2] [%]	Compound	other results
439	82	Cc1nnc2sc3c(NCc4ccc(-c5ccnn5C)cc4)ncnc3c2c1C [Compound 193, 3,4-dimethyl-N-[[4-(2-methylpyrazol-3-yl)phenyl]methyl]pyrimido [4′,5′:4,5]thieno[2,3-c] pyridazin-8-amine]	–
1210	97.6	Cc1nnc2sc3c(NCc4ccc(F)c(C(=O)NCC(C)C)c4)ncnc3c2c1C [Compound 180, 5-[[(3,4-dimethylpyrimido [4′,5′:4,5]thieno[2,3-c]pyridazin-8-yl)amino]methyl]-2-fluoro-N-isobutyl-benzamide]	–
172	30.9	Cc1nnc2sc3c(N4CCC(C(C)(C)O)C4)ncnc3c2c1C (stereo not shown) [Compound 171, 2-[1-(3,4-dimethylpyrimido [4′,5′:4,5]thieno[2,3-c]pyridazin-8-yl)pyrrolidin-3-yl]propan-2-ol]	–
341	66.5	Cc1cc(C)c2c(n1)sc1c(N3CC(c4ccncc4)C3)ncnc12 [Compound 201, 7,9-dimethyl-4-[3-(4-pyridyl)azetidin-1-yl] pyrido[3′,2′:4,5]thieno [3,2-d]pyrimidine]	–
1040	54	Cc1nnc2sc3c(N4CC[C@@H](N)C4)ncnc3c2c1C [Compound 99, (3R)-1-(3,4-dimethylpyrimido [4′,5′:4,5]thieno[2,3-c]pyridazin-8-yl)pyrrolidin-3-amine dihydrochloride]	–
222	80.6	Cc1nnc2sc3c(N(C)Cc4ccc(C(C)(C)O)cc4)ncnc3c2c1C [Compound 137, 2-[4-[[(3,4-dimethylpyrimido [4′,5′:4,5]thieno[2,3-c]pyridazin-8-yl)-methyl-amino]methyl]phenyl] propan-2-ol]	–
773	95.2	Cc1nnc2sc3c(NCc4ccc(-c5cccnc5F)cc4)ncnc3c2c1C [Compound 79, N-(4-(2-fluoropyridin-3-yl)benzyl)-3,4-dimethylpyrimido [4′,5′:4,5]thieno[2,3-c] pyridazin-8-amine]	–
1920	54.5	Cc1c(Cl)cnc2sc3c(NCc4ccc(C(=O)N(C)C)cc4)ncnc3c12 [Compound 229, 4-[[(8-chloro-9-methyl-pyrido [3′,2′:4,5]thieno[3,2-d]pyrimidin-4-yl)amino]methyl]-N,N-dimethyl-benzamide]	–
818	45.9	Cc1nnc2oc3c(NC4CCCC4)ncnc3c2c1C [Compound 304, N-cyclopentyl-3,4-dimethyl-pyrimido [4′,5′:4,5]furo[2,3-c]pyridazin-8-amine]	–
255	74.6	Cc1nnc2sc3c(NCc4ccc(C(C)(C)O)c(F)c4)ncnc3c2c1C [Compound 112, 2-[4-[[(3,4-dimethylpyrimido [4′,5′:4,5]thieno[2,3-c]pyridazin-8-yl)amino]methyl]-2-fluoro-phenyl]propan-2-ol]	–
9780	69.8	Cc1c(Cl)cnc2sc3c(NCc4ccc(CN5CCOCC5)cc4)ncnc3c12 [Compound 232, 8-chloro-9-methyl-N-[[4-(morpholinomethyl)phenyl]methyl]pyrido [3′,2′:4,5]thieno[3,2-d] pyrimidin-4-amine]	–
277	67.3	Cc1cc(C)c2c(n1)sc1c(N3CCCC3)ncnc12 [Compound 199, 7,9-dimethyl-4-pyrrolidin-1-yl-pyrido[3′,2′:4,5] thieno[3,2-d]pyrimidine]	–
1320	54.5	Cc1c(Cl)cnc2sc3c(NCc4ccc(S(C)(=O)=O)cc4)ncnc3c12 [Compound 237, 8-chloro-9-methyl-N-[(4-methylsulfonylphenyl)methyl]pyrido [3′,2′:4,5]thieno[3,2-d] pyrimidin-4-amine dihydrochloride]	–
3210	90.8	Cc1nnc2sc3c(NCc4ccc(-c5cccs5)cc4)ncnc3c2c1C [Compound 190, 3,4-dimethyl-N-[[4-(2-thienyl)phenyl]methyl] pyrimido[4′,5′:4,5]thieno [2,3-c]pyridazin-8-amine]	–

Further lines, the compound ahead of its results:

Compound	EC50 [1] [nM]	Emax [2] [%]	other results
Cc1cc(C)c2c(n1)oc1c(NC3CC3)ncnc12 [Compound 62, N-cyclopropyl-7,9-dimethyl-pyrido[3′,2′:4,5]furo[3,2-d]pyrimidin-4-amine hydrochloride]	–	–	Emax: 63.9%
Cc1cc(CNc2ncnc3c2sc2nnc(C)c(C)c23)ccc1C(C)(C)O [Compound 334, 2-[4-[[(3,4-dimethylpyrimido [4′,5′:4,5]thieno[2,3-c]pyridazin-8-yl)amino]methyl]-2-methyl-phenyl]propan-2-ol]	–	–	Emax [3]: 90.6%
Cc1nnc2sc3c(NCc4ccc(C(C)(O)C(F)(F)F)cc4)ncnc3c2c1C (stereo not shown) [Compound 113, 2-[4-[[(3,4-dimethylpyrimido [4′,5′:4,5]thieno[2,3-c]pyridazin-8-yl)amino]methyl]phenyl]-1,1,1-trifluoro-propan-2-ol]	–	73.8	–
Cc1nnc2oc3c(NCc4ccc(C(C)(C)O)nc4)ncnc3c2c1C [Compound 74, 2-[5-[[(3,4-dimethylpyrimido [4′,5′:4,5]furo[2,3-c]pyridazin-8-yl)amino]methyl]-2-pyridyl]propan-2-ol]	–	–	Emax [4]: 59.5%; EC50 [5]: 9160 nM
Cc1nnc2sc3c(NCc4ccc(C(C)(C)CO)cc4)ncnc3c2c1C [Compound 375, 2-[4-[[(3,4-dimethylpyrimido[4′,5′:4,5]thieno[2,3-c]pyridazin-8-yl)amino]methyl]phenyl]-2-methyl-propan-1-ol]	–	–	EC50 [6]: 138 nM; Emax [3]: 87.2%
Cc1nnc2sc3c(NCc4ccc(C(=O)NC5CC(F)(F)C5)c(Cl)c4)ncnc3c2c1C [Compound 322, 2-chloro-N-(3,3-difluorocyclobutyl)-4-[[(3,4-dimethylpyrimido [4′,5′:4,5]thieno[2,3-c]pyridazin-8-yl)amino]methyl]benzamide]	–	–	EC50 [6]: 197 nM; Emax [3]: 81.6%
Cc1nnc2sc3c(N4CC(=O)C4)ncnc3c2c1C [Compound 36, 1-(3,4-dimethylpyrimido [4′,5′:4,5]thieno[2,3-c]pyridazin-8-yl) azetidin-3-one]	–	–	Emax [4]: 64%; EC50 [5]: 1000 nM
Cc1nnc2sc3c(NCc4ccc(C(=O)NC5CC(F)C5)cc4)ncnc3c2c1C (stereo not shown) [Compound 151, 4-[[(3,4-dimethylpyrimido [4′,5′:4,5]thieno[2,3-c]pyridazin-8-yl)amino]methyl]-N-(3-fluorocyclobutyl) benzamide]	27.7	87.4	–
Cc1nnc2sc3c(N4CC(Oc5ccccc5)C4)ncnc3c2c1C [Compound 33, 3,4-dimethyl-8-(3-phenoxyazetidin-1-yl) pyrimido[4′,5′:4,5]thieno [2,3-c]pyridazine]	–	–	Emax [4]: 54%; EC50 [5]: 4430 nM
Cc1nnc2sc3c(NCc4ccc(C(C)(C)O)nc4)ncnc3c2c1C [Compound 106, 2-[5-[[(3,4-dimethylpyrimido [4′,5′:4,5]thieno[2,3-c]pyridazin-8-yl)amino]methyl]-2-pyridyl]propan-2-ol]	–	54.1	–
Cc1nnc2oc3c(NCc4cccc(C5(O)CCC5)c4)ncnc3c2c1C [Compound 66, 1-[3-[[(3,4-dimethylpyrimido [4′,5′:4,5]furo[2,3-c]pyridazin-8-yl)amino]methyl]phenyl]cyclobutanol]	–	–	Emax [4]: 61.1%
Cc1nnc2sc3c(NCc4ccc(C(=O)NC5CC(F)(F)C5)cc4)ncnc3c2c1C [Compound 152, N-(3,3-difluorocyclobutyl)-4-[[(3,4-dimethylpyrimido [4′,5′:4,5]thieno[2,3-c]pyridazin-8-yl)amino]methyl]benzamide]	59.2	86.9	–
Cc1nnc2sc3c(N4CC(Nc5ncccc5C#N)C4)ncnc3c2c1C [Compound 141, 2-((1-(3,4-dimethylpyrimido [4′,5′:4,5]thieno[2,3-c]pyridazin-8-yl)azetidin-3-yl)amino) nicotinonitrile 2,2,2-trifluoroacetate]	590	66.4	–
Cc1nnc2sc3c(N4CC[C@@H](Oc5ccnc(C(F)(F)F)c5)C4)ncnc3c2c1C [Compound 337, 3,4-dimethyl-8-[(3R)-3-[[2-(trifluoromethyl)-4-pyridyl]oxy]pyrrolidin-1-yl]pyrimido[4′,5′:4,5] thieno[2,3-c]pyridazine]	–	–	EC50 [6]: 116 nM; Emax [3]: 80.2%
Cc1cc(CNc2ncnc3c2sc2nnc(C)c(C)c23)cnc1C [Compound 148, N-[(5,6-dimethyl-3-pyridyl)methyl]-3,4-dimethyl-pyrimido [4′,5′:4,5]thieno[2,3-c] pyridazin-8-amine hydrochloride]	522	–	Emax: 84%
COc1ccc(C2CC2Nc2ncnc3c2sc2nnc(C)c(C)c23)cc1 (stereo not shown) [Compound 77, N-(2-(4-methoxyphenyl)cyclopropyl)-3,4-dimethylpyrimido [4′,5′:4,5]thieno[2,3-c] pyridazin-8-amine]	200	86	–
Cc1cc(C)c2c(n1)oc1c(NC3CN(c4cc(Cl)ncc4Cl)C3)ncnc12 [Compound 290, N-[1-(2,5-dichloro-4-pyridyl)azetidin-3-yl]-7,9-dimethyl-pyrido[3′,2′:4,5]furo[3,2-d]pyrimidin-4-amine dihydrochloride]	1490	–	Emax (%) [2]: 49.29%
Cc1nnc2oc3c(NC4CCC4)ncnc3c2c1C [Compound 69, N-cyclobutyl-3,4-dimethyl-pyrimido [4′,5′:4,5]furo[2,3-c]pyridazin-8-amine]	–	–	Emax [4]: 54.8%
